Source: US12011459B2, “Methods for manufacturing T cells by direct sorting and compositions thereof” (Immatics US, Inc., priority 2019, dated 2024)
Values joined by “and” are separate entries in the source; they are usually repeats but may differ in a detail not shown here. Equal entries are not always repeated.

What was measured:
PBMC = experiment: Col6A3-002 2D tetramer staining of PBMC with dasatinib treatment, flow cytometry; type: cell-based, human; details: for 2D PE/BV421 Tet-positive and irrelevant peptide APC tetramer-negative events: 4° C.
Protocol: To compare the effects of PKI and temperatures on pMHC multimer staining, healthy donor peripheral blood mononuclear cells (PBMCs) were pretreated with 50 nM Dasatinib (FIG. 21A) or untreated (FIG. 21B) and then stained with two Col6A3-002 peptide (FLLDGSANV (SEQ ID NO: 141)) (Col) tetramers (2Dtet) conjugated to streptavidin BV421 and PE, and five different irrelevant APC tetramers (peptide 1, peptide 2, peptide 3, peptide 4, and peptide 5) at either 37° C. (FIG. 21A) or room-temperature (RT) (FIG. 21B) for 30 minutes. Following tetramer staining, samples were counterstained with tetramer stabilizing antibodies staining against PE and APC at 4° C., followed by staining with anti-CD45 PE-Cy7 antibody at 4° C.
To determine which staining conditions that may provide lowest background and lowest false positive rate, PBMC were stained with or without PKI treatment, e.g., dasatinib (DAS), with or without irrelevant peptide tetramer mix at different tetramer staining temperatures (Hadrup et al., Nat. Methods, 2009, 6:520-526; the content of which is hereby incorporated by reference in its entirety). For example, PBMC cells were stained with 2D Tet (PE+BV421) in the presence or in the absence of irrelevant peptide tetramer mix, e.g., five different irrelevant peptides (e.g., Col6A3-015 (YLMDDFSSL (SEQ ID NO: 16)), MAG-003 (KVLEHVVRV (SEQ ID NO: 118)), MAGEC2-001 (TLDEKVAEL (SEQ ID NO: 161)), MXRA5-003 (LLWGHPRVALA (SEQ ID NO: 18), and MAGEA1-003 (KVLEYVIKV (SEQ ID NO: 105)) APC tetramers±DAS treatment, at 37° C. or at room temperature (RT). DAS treatments were performed at 37° C.
To investigate PBMC staining under conditions D and G, PBMC (12.5×10^6 cells/ml) obtained from 4 donors were stained±DAS treatment (50 nM, at 37° C.), Col6A3-002 BV421 tetramer (3 μg/ml) and Col6A3-002 PE Tetramer (2.5 μg/ml), fluorochrome-labeled anti-CD45 antibody, e.g., PE-Cy7 mouse anti-human CD45 (BD Biosciences), Col6A3-002 BV421 tetramer (3 μg/ml), and APC irrelevant peptides (n=5, e.g., Col6A3-015 (YLMDDFSSL (SEQ ID NO: 16)), MAG-003 (KVLEHWRV (SEQ ID NO: 118)), MAGEC2-001 (TLDEKVAEL (SEQ ID NO: 161)), MXRA5-003 (LLWGHPRVALA (SEQ ID NO: 18), and MAGEA1-003 (KVLEYVIKV (SEQ ID NO: 105)) tetramer mix (3 μg/ml) with all staining, spins, and washes at 4° C.
The experiments shown in FIGS. 37A-37D were repeated using a different fluorochrome-labeled anti-CD45 antibody, e.g., PE-Cy™7 mouse anti-human CD45 (BD Biosciences). PBMC (10×10^6 cells/nil) obtained from 4 donors were stained with or without DAS treatment (50 nM, at 37° C.), BV421 (3 μg/ml), Col6A3-002 2D Tet (PE+BV421) (2.5 μg/ml), PerCP-Cy™5.5 mouse anti-human CD45 (BD Biosciences), Col6A3-002 BV421 tetramer (3 μg/ml), and APC (n=5) irrelevant tetramer mix (3 μg/ml) with all staining, spins, and washes at 4° C.

[1] = test system: Col6A3 REP1 cells (αCol6A3 T cells); experiment: Col6A3-002 2D tetramer staining of Col6A3 REP1 cells with dasatinib treatment, flow cytometry; type: cell-based; details: for background staining of BV421/APC double-positive irrelevant peptide T cells (Q2): bench and centrifugation at 4° C.
Protocol: To determine which staining conditions that may provide higher staining index (SI), indicating better separation of cells stained positive from cells stained negative, and lower false negative rate, Col6A3 REP1 cells, which were prepared by rapid expansion protocol (REP), were stained±DAS treatment (at 37° C.), ±irrelevant peptide tetramer mix, and staining at RT or 37° C.
Staining index (SI) may be calculated by using formula (I): SI=(mean PE+mean BV421 2Dtet+)−(mean PE+mean BV421 2Dtet−)/2×(SD PE+SD BV421 2Dtet−). […] (P=0.316695), and ±irrelevant peptide tetramer mix (P=0.597223).
The estimation per 1×10^6 based on flow %, which indicates numbers of peptide-specific T cells per 1×10^6 of CD45+ cells, may be calculated by the formula: (2Dtet+%×1×10^6/100)−((2Dtet+%×1×10^6/100)×irrelevant peptide tetramer mix+%/100)). Table 14 summarizes the estimations under the staining conditions A-G. DAS treatment was performed at 37° C. for 30 minutes.

[2] = test system: αCol6A3 T cells spiked in PBMC (1:1×10^5); experiment: Col6A3-002 2D tetramer staining of αCol6A3 T cells spiked in PBMC, condition #1; type: cell-based; details: staining at 37° C.
Protocol: Condition #1: with DAS treatment+irrelevant peptide tetramer mix, staining at 37° C.
Sample #2: αCol6A3 T cells spiked in PBMC (1:1×10^5), about 2×10^6 CD45+cells acquired

[3] = test system: Col6A3 REP1 cells (αCol6A3 T cells); experiment: Col6A3-002 2D tetramer staining of Col6A3 REP1 cells with dasatinib treatment, flow cytometry; type: cell-based; details: Col6A3 PEP1 cells
[4] = PBMC, DAS treatment, staining at RT, with irrelevant peptide APC tetramer mix
[5] = DAS treatment, staining at 37° C., with irrelevant peptide APC tetramer mix, listed as DAS
[6] = DAS treatment, staining at RT, with irrelevant peptide APC tetramer mix
[7] = DAS treatment + irrelevant peptide tetramer mix

Compound: Cc1nc(Nc2ncc(C(=O)Nc3c(C)cccc3Cl)s2)cc(N2CCN(CCO)CC2)n1 [Dasatinib, dasatinib]
- 2D PE/BV421 Tet-positive and irrelevant peptide APC tetramer-negative events (PBMC; PBMC sample S1, in 1.29×10^7 lymphocytes acquired, DAS): 128 events
- 2D PE/BV421 Tet-positive and irrelevant peptide APC tetramer-negative events (PBMC; PBMC sample S2, in 6.09×10^6 lymphocytes acquired, DAS): 68 events
- 2D PE/BV421 Tet-positive and irrelevant peptide APC tetramer-negative events (PBMC; PBMC sample S3, in 9.71×10^5 lymphocytes acquired, DAS): 23 events
- 2D PE/BV421 Tet-positive and irrelevant peptide APC tetramer-negative events (PBMC; PBMC sample S4, in 5.35×10^6 lymphocytes acquired, DAS): 80 events
- 2D Tet (PE+BV421) double-positive cells (Q2) of CD45+ cells (PBMC; PBMC, 50 nM dasatinib treatment, Tet staining at 37° C., with irrelevant peptide APC tetramer mix): 0.027%
- 2D Tet (PE+BV421) double-positive cells (Q2) of CD45+ cells (PBMC; PBMC, DAS 50 nM at 37° C., all staining, spins, washes at 4° C., with irrelevant mix, FIG. 37A): 4.23E-3%
- 2D Tet (PE+BV421)-positive and irrelevant peptide-negative cells in Q2 cells (PBMC; PBMC, DAS 50 nM, all staining, spins, washes at 4° C., FIG. 37A): 46.5%
- 2D Tet (PE+BV421) double-positive cells (Q2) of CD45+ cells (PBMC; PBMC, DAS treatment, staining at 37° C., absence of irrelevant peptide APC tetramer mix): 0.19%
- APC-negative/BV421-positive cells (true Col6A3-specific T cells, Q1) in Q2 cells (PBMC; PBMC, DAS treatment, staining at 37° C., with irrelevant peptide APC tetramer mix): 0.93%
- irrelevant peptide positive T cells in the BV421/PE double-positive (Q2) cells (PBMC; PBMC, DAS treatment, staining at 37° C., with irrelevant peptide APC tetramer mix, listed as DAS): 98.2% and 99.1%
- 2D Tet (PE+BV421) double-positive cells (Q2) of CD45+ cells (PBMC; PBMC, DAS treatment, staining at RT, absence of irrelevant peptide APC tetramer mix): 7.17E-3%
- 2D Tet (PE+BV421) double-positive cells (Q2) of CD45+ cells (PBMC; [4]): 8.04E-3%
- APC-negative/BV421-positive cells (true Col6A3-specific T cells, Q1) in Q2 cells (PBMC; [4]): about 4.76%
- irrelevant peptide positive T cells in the BV421/PE double-positive (Q2) cells (PBMC; [4]): 95.2%
- final frequency: one Col Tet+ T cell in N CD45+ cells (PBMC; PBMC, dasatinib treatment, staining at 37° C., with irrelevant APC tetramers): 4×10^5 CD45+ cells
- 2D PE/BV421 Tet-positive and irrelevant peptide APC tetramer-negative events (PBMC; PBMC, in 4.78×10^6 lymphocytes acquired, DAS): 94 events
- increase of MFI (PBMC; in ¼ of DAS-treated samples): about 2 ×
- 2D PE/BV421 Tet-positive and irrelevant peptide APC tetramer-negative cells detected (PBMC; only PBMC, in 2×10^6 CD45+ cells acquired, DAS, staining at 37° C.): 5 cells
- irrelevant peptide positive T cells in Q2 cells [1, 5]: 6.38% and 3.18%
- staining index (SI) [1, 5]: 19.0 and 15.6
- 2D Tet (PE+BV421) double-positive cells (Q2) of CD45+ cells [1, 6]: 55.8%
- APC-negative/BV421-positive cells (true Col6A3 REP1 cells, Q1) in Q2 cells [1, 6]: about 78.4%
- irrelevant peptide positive T cells in Q2 cells [1, 6]: 21.6%
- staining index (SI) [1, 6]: 24.0
- Estimation per 1e6 based on flow % (peptide-specific T cells per 1×10^6 CD45+ cells) ([1]; condition A: Dasatinib +, Tet stain 37, bench RT, centrifuge RT): 2.24 × 10^5 per 1e6
- background staining of BV421/APC double-positive irrelevant peptide T cells (Q2) ([1]; condition C: DAS, Tet staining at 37° C.): 2.01%
- Estimation per 1e6 based on flow % (peptide-specific T cells per 1×10^6 CD45+ cells) ([1]; condition C: Dasatinib +, Tet stain 37, bench 4, centrifuge 4): 5.61 × 10^5 per 1e6
- background staining of BV421/APC double-positive irrelevant peptide T cells (Q2) ([1]; condition D: DAS, Tet staining): 13.7%
- Estimation per 1e6 based on flow % (peptide-specific T cells per 1×10^6 CD45+ cells) ([1]; condition D: Dasatinib +, Tet stain 4, bench 4, centrifuge 4): 6.75 × 10^5 per 1e6
- background staining of BV421/APC double-positive irrelevant peptide T cells (Q2) ([1]; condition F: DAS, Tet staining at RT): 3.07%
- Estimation per 1e6 based on flow % (peptide-specific T cells per 1×10^6 CD45+ cells) ([1]; condition F: Dasatinib +, Tet stain RT, bench 4, centrifuge 4): 6.75 × 10^5 per 1e6
- 2D PE/BV421 Tet double-positive cells (Q2) of CD45+ cells [2, 7]: 0.035%
- APC-negative/BV421-positive cells (true αCol6A3 T cells, Q1) in Q2 cells [2, 7]: about 2.58%
- BV421/APC double-positive irrelevant peptide T cells in Q2 cells [2, 7]: 97.4%
- one αCol6A3 T cell in N CD45+ cells [2, 7]: 1×10^5 CD45+ cells
- 2D PE/BV421 Tet-positive and irrelevant peptide APC tetramer-negative events ([2]; in 2×10^6 CD45+ cells acquired, DAS): 18 events
- 2D Tet (PE+BV421)-positive and irrelevant peptide-negative cells in Q2 cells ([3]; DAS treatment, 4° C., FIG. 39): 95.8%
- 2D Tet (PE+BV421) double-positive cells (Q2) of CD45+ cells ([3]; DAS treatment, all staining, spins, washes at 4° C., FIG. 39): 68.9%
- 2D PE/BV421 Tet-positive and irrelevant peptide APC tetramer-negative events ([3]; in 206055 lymphocytes acquired, DAS, 4° C.): 135941 events
